The text below walks through data of patent US20120220562A1, “Anti-Viral Compounds” (ABBOTT LABAORATORIES, priority 2011, published 2012).

Molecules are shown by their SMILES.

This assay has as its system HCV 1b-Con1 replicon. Kind of assay: HCV 1b-Con1 replicon assay in the presence of 5% FBS. It counts as cell-based. The note with it: Hepatitis C virus. For orientation: A replicon is a self-replicating genome or part of one, used to study replication in cells.
Turning to `O=C([C@@H]1CCCO1)N1CCC[C@H]1c1nc2cc([C@H]3CC[C@H](c4ccc5[nH]c([C@@H]6CCCN6C(=O)[C@@H]6CCCO6)nc5c4)N3c3cc(F)c(N4CCC(c5ccccc5)CC4)c(F)c3)ccc2[nH]1` [Example 3.31, ({(2R,5R)-1-[3,5-difluoro-4-(4-phenylpiperidin-1-yl)phenyl]pyrrolidine-2,5-diyl}bis[1H-benzimidazole-5,2-diyl(2S)pyrrolidine-2,1-diyl])bis[(2S)-tetrahydrofuran-2-ylmethanone]], the EC50 was below 0.1 nM.

In the case of `COC(=O)N[C@H](C(=O)N1CCC[C@H]1c1nc2cc([C@@H]3CC[C@@H](c4cc5nc([C@@H]6CCCN6C(=O)[C@@H](NC(=O)OC)C(C)C)[nH]c5cc4F)N3c3cc(F)c(N4CCN(c5c(F)cccc5F)CC4)c(F)c3)c(F)cc2[nH]1)C(C)C` [Example 3.50, methyl {(2S)-1-[(2S)-2-{5-[(2S,5S)-1-{4-[4-(2,6-difluorophenyl)piperazin-1-yl]-3,5-difluorophenyl}-5-{6-fluoro-2-[(2S)-1-{(2S)-2-[(methoxycarbonyl)amino]-3-methylbutanoyl}pyrrolidin-2-yl]-1H-benzimidazol-5-yl}pyrrolidin-2-yl]-6-fluoro-1H-benzimidazol-2-yl}pyrrolidin-1-yl]-3-methyl-1-oxobutan-2-yl}carbamate], the concentration for a half-maximal effect (EC50) was below 0.1 nM.

As for `COC(=O)N[C@H](C(=O)N1CCC[C@H]1c1nc2cc([C@H]3CC[C@H](c4ccc5[nH]c([C@@H]6CCCN6C(=O)[C@@H](NC(=O)OC)C(C)(C)C)nc5c4)N3c3cc(F)c(N4CCC(c5ccccc5)CC4)c(F)c3)ccc2[nH]1)C(C)(C)C` [Example 5.4, methyl {(2S)-1-[(2S)-2-{5-[(2R,5R)-1-[3,5-difluoro-4-(4-phenylpiperidin-1-yl)phenyl]-5-{2-[(2S)-1-{(2S)-2-[(methoxycarbonyl)amino]-3,3-dimethylbutanoyl}pyrrolidin-2-yl]-1H-benzimidazol-5-yl}pyrrolidin-2-yl]-1H-benzimidazol-2-yl}pyrrolidin-1-yl]-3,3-dimethyl-1-oxobutan-2-yl}carbamate], the EC50 is below 0.1 nM.

Consider `COC(=O)N[C@H](C(=O)N1CCC[C@H]1c1nc2ccc([C@H]3CC[C@H](c4ccc5nc([C@@H]6CCCN6C(=O)[C@@H](NC(=O)OC)C(C)C)[nH]c5c4)N3c3cc(F)c(N4CCC(C)CC4)c(F)c3)cc2[nH]1)C(C)C` [Example 2.9, methyl {(2S)-1-[(2S)-2-{6-[(2R,5R)-1-[3,5-difluoro-4-(4-methylpiperidin-1-yl)phenyl]-5-{2-[(2S)-1-{(2S)-2-[(methoxycarbonyl)amino]-3-methylbutanoyl}pyrrolidin-2-yl]-1H-benzimidazol-6-yl}pyrrolidin-2-yl]-1H-benzimidazol-2-yl}pyrrolidin-1-yl]-3-methyl-1-oxobutan-2-yl}carbamate], for which the EC50 was below 0.1 nM.

Consider `COC(=O)N[C@H](C(=O)N1CCC[C@H]1c1nc2cc([C@@H]3CC[C@@H](c4ccc5[nH]c([C@@H]6CCCN6C(=O)[C@@H](NC(=O)OC)[C@@H](C)OC)nc5c4)N3c3ccc(C4CC4)cc3)ccc2[nH]1)[C@@H](C)OC` [Example 4.14, methyl {(2S,3R)-1-[(2S)-2-{5-[(2S,55)-1-(4-cyclopropylphenyl)-5-(2-{(2S)-1-[N-(methoxycarbonyl)-O-methyl-L-threonyl]pyrrolidin-2-yl}-1H-benzimidazol-5-yl)pyrrolidin-2-yl]-1H-benzimidazol-2-yl}pyrrolidin-1-yl]-3-methoxy-1-oxobutan-2-yl}carbamate], for which the EC50 is below 0.1 nM.

Consider `COC(=O)N[C@H](C(=O)N1C[C@@H](OC)C[C@H]1c1nc2cc([C@H]3CC[C@H](c4ccc5[nH]c([C@@H]6C[C@H](OC)CN6C(=O)[C@@H](NC(=O)OC)C(C)C)nc5c4)N3c3ccc(F)cc3)ccc2[nH]1)C(C)C` [Example 3.10, methyl {(2S)-1-[(2S,4S)-2-{5-[(2R,5R)-1-(4-fluorophenyl)-5-{2-[(2S,4S)-4-methoxy-1-{(2S)-2-[(methoxycarbonyl)amino]-3-methylbutanoyl}pyrrolidin-2-yl]-1H-benzimidazol-5-yl}pyrrolidin-2-yl]-1H-benzimidazol-2-yl}-4-methoxypyrrolidin-1-yl]-3-methyl-1-oxobutan-2-yl}carbamate], for which the half-maximal effective concentration (EC50) lay within 0.1 to 1 nM.

Take `COC(=O)N[C@H](C(=O)N1CCC[C@H]1c1nc2cc([C@H]3CC[C@H](c4ccc5[nH]c([C@@H]6CCCN6C(=O)[C@@H](NC(=O)OC)C(C)C)nc5c4)N3c3cc(F)c(N4C[C@H]5CC[C@H]5C4)c(F)c3)ccc2[nH]1)C(C)C` [Example 1.8, methyl {(2S)-1-[(2S)-2-{5-[(2R,5R)-1-{4-[(1R,5S)-3-azabicyclo[3.2.0]hept-3-yl]-3,5-difluorophenyl}-5-{2-[(2S)-1-{(2S)-2-[(methoxycarbonyl)amino]-3-methylbutanoyl}pyrrolidin-2-yl]-1H-benzimidazol-5-yl}pyrrolidin-2-yl]-1H-benzimidazol-2-yl}pyrrolidin-1-yl]-3-methyl-1-oxobutan-2-yl}carbamate]: the half-maximal effective concentration (EC50) is below 0.1 nM.

As for `COC(=O)N[C@H](C(=O)N1C[C@@H](F)C[C@H]1c1nc2cc([C@H]3CC[C@H](c4ccc5[nH]c([C@@H]6C[C@H](F)CN6C(=O)[C@@H](NC(=O)OC)C(C)C)nc5c4)N3c3ccc(F)cc3)ccc2[nH]1)C(C)C` [Example 3.9, methyl {(2S)-1-[(2S,4S)-4-fluoro-2-{5-[(2R,5R)-5-{2-[(2S,4S)-4-fluoro-1-{(2S)-2-[(methoxycarbonyl)amino]-3-methylbutanoyl}pyrrolidin-2-yl]-1H-benzimidazol-5-yl}-1-(4-fluorophenyl)pyrrolidin-2-yl]-1H-benzimidazol-2-yl}pyrrolidin-1-yl]-3-methyl-1-oxobutan-2-yl}carbamate], the EC50 lay within 0.1 to 1 nM.

Consider `C=C1C[C@@H](c2nc3cc([C@H]4CC[C@H](c5ccc6[nH]c([C@@H]7CC(=C)CN7C(=O)[C@@H](NC(=O)OC)C(C)C)nc6c5)N4c4ccc(C(C)(C)C)cc4)ccc3[nH]2)N(C(=O)[C@@H](NC(=O)OC)C(C)C)C1` [Example 3.26, methyl {(2S)-1-[(2S)-2-{5-[(2R,5R)-1-(4-tert-butylphenyl)-5-{2-[(2S)-1-{(2S)-2-[(methoxycarbonyl)amino]-3-methylbutanoyl}-4-methylidenepyrrolidin-2-yl]-1H-benzimidazol-5-yl}pyrrolidin-2-yl]-1H-benzimidazol-2-yl}-4-methylidenepyrrolidin-1-yl]-3-methyl-1-oxobutan-2-yl}carbamate], for which the 50% effective concentration (EC50) was below 0.1 nM.

For `COC(=O)N[C@H](C(=O)N1CCC[C@H]1c1nc2cc([C@H]3CC[C@H](c4cc5nc([C@@H]6CCCN6C(=O)[C@@H](NC(=O)OC)C(C)C)[nH]c5cc4F)N3c3cc(F)c(N4CCC5(CCCCC5)CC4)c(F)c3)c(F)cc2[nH]1)C(C)C` [Example 4.53, methyl {(2S)-1-[(2S)-2-{5-[(2R,5R)-1-[4-(3-azaspiro[5.5]undec-3-yl)-3,5-difluorophenyl]-5-{6-fluoro-2-[(2S)-1-{(2S)-2-[(methoxycarbonyl)amino]-3-methylbutanoyl}pyrrolidin-2-yl]-1H-benzimidazol-5-yl}pyrrolidin-2-yl]-6-fluoro-1H-benzimidazol-2-yl}pyrrolidin-1-yl]-3-methyl-1-oxobutan-2-yl}carbamate], the EC50 is below 0.1 nM.

Consider `COC(=O)N[C@H](C(=O)N1CCC[C@H]1c1nc2cc([C@H]3CC[C@H](c4ccc5[nH]c([C@@H]6CCCN6C(=O)[C@@H](NC(=O)OC)C(C)C)nc5c4)N3c3cc(F)c(N4CCCCC4)c(F)c3F)ccc2[nH]1)C(C)C` [Example 4.7, methyl {(2S)-1-[(2S)-2-(5-{(2R,5R)-5-{2-[(2S)-1-{(2S)-2-[(methoxycarbonyl)amino]-3-methylbutanoyl}pyrrolidin-2-yl]-1H-benzimidazol-5-yl}-1-[2,3,5-trifluoro-4-(piperidin-1-yl)phenyl]pyrrolidin-2-yl}-1H-benzimidazol-2-yl)pyrrolidin-1-yl]-3-methyl-1-oxobutan-2-yl}carbamate], for which the EC50 is below 0.1 nM.

`COC(=O)N[C@H](C(=O)N1CCC[C@H]1c1nc2cc([C@H]3CC[C@H](c4cc5nc([C@@H]6CCCN6C(=O)[C@@H](NC(=O)OC)C(C)C)[nH]c5cc4F)N3c3cc(F)c(N4CCO[C@@H](c5ccccc5)C4)c(F)c3)c(F)cc2[nH]1)C(C)C` [Example 4.55, methyl {(2S)-1-[(2S)-2-{5-[(2R,5R)-1-{3,5-difluoro-4-[(2S)-2-phenylmorpholin-4-yl]phenyl}-5-{6-fluoro-2-[(2S)-1-{(2S)-2-[(methoxycarbonyl)amino]-3-methylbutanoyl}pyrrolidin-2-yl]-1H-benzimidazol-5-yl}pyrrolidin-2-yl]-6-fluoro-1H-benzimidazol-2-yl}pyrrolidin-1-yl]-3-methyl-1-oxobutan-2-yl}carbamate]: the 50% effective concentration (EC50) was below 0.1 nM.

Regarding `COC(=O)N[C@H](C(=O)N1CCC[C@H]1c1nc2cc([C@H]3CC[C@H](c4ccc5[nH]c([C@@H]6CCCN6C(=O)[C@@H](NC(=O)OC)C6CCOCC6)nc5c4)N3c3cc(F)c(N4CCCCC4)c(F)c3)ccc2[nH]1)C1CCOCC1` [Example 3.18, dimethyl ({(2R,5R)-1-[3,5-difluoro-4-(piperidin-1-yl)phenyl]pyrrolidine-2,5-diyl}bis{1H-benzimidazole-5,2-diyl(2S)pyrrolidine-2,1-diyl [(1S)-2-oxo-1-(tetrahydro-2H-pyran-4-yl)ethane-2,1-diyl]})biscarbamate], the half-maximal effective concentration (EC50) is below 0.1 nM.

Turning to `COC(=O)N[C@H](C(=O)N1CCC[C@H]1c1nc2cc([C@H]3CC[C@H](c4ccc5[nH]c([C@@H]6CCCN6C(=O)[C@@H](NC(=O)OC)C(C)C)nc5c4)N3c3cc(F)c(N4C[C@H]5CCCC[C@H]5C4)c(F)c3)ccc2[nH]1)C(C)C` [Example 4.3, methyl {(2S)-1-[(2S)-2-{5-[(2R,5R)-1-{3,5-difluoro-4-[(3aR,7aS)-octahydro-2H-isoindol-2-yl]phenyl}-5-{2-[(2S)-1-{(2S)-2-[(methoxycarbonyl)amino]-3-methylbutanoyl}pyrrolidin-2-yl]-1H-benzimidazol-5-yl}pyrrolidin-2-yl]-1H-benzimidazol-2-yl}pyrrolidin-1-yl]-3-methyl-1-oxobutan-2-yl}carbamate], the EC50 is below 0.1 nM.

In general, EC50 refers to the concentration at which the effect is half-maximal.
